For 44 compounds, IC50 results are on record in US6713477B1, “Hydroxamic acid derivatives” (Sumitomo Pharmaceuticals Company, Limited, priority 2000, dated 2004).

As usually defined, the IC50 is the concentration needed to halve the response being measured.

In test [1] the target is T1, MMP-3 (Matrix Metalloproteinase-3, Stromelysin-1) (Homo sapiens, UniProt P08254).
T1 construct: C-terminal truncated form of human prostromelysin cDNA; made in house; host or cells: E. coli
In words: Inhibition assay against MMP-3 (fluorescent MCA-labeled substrate). It is filed as biochemical. As to conditions: Table 10; active MMP at 20 nM, 37° C., 1.5 hours; read-out: IC50 MMP3. As for the experimental part: C-terminal truncated form of human prostromelysin cDNA (proMMP-3, cDNA sequence in Nature, 348, 699-704 (1990)) was subcloned, expressed in E.coli and purified as described previously (Biochemistry 30, 6476-6483 (1991)). Activation of proMMP-3 was achieved by treatment with 1 mM 4-aminophenylmercuric acetate at 37° C. for 60 min.
(§1) Enzymatic assays were performed in accordance with C. G. Knight's method (FEBS Lett., 296(3), 263-266 (1992)). The fluorescent MCA-labeled substrate, (7-methoxycumaline-4-yl)-Pro-Leu-Gly-Leu-L-[N-(2,4-dinitrophenyl)-L-2,3-diaminopropionyl]-Ala-Arg-NH2 (Peptide Institute. Inc.) was used for measuring the kinetics of inhibition for each tested compound.
(§2) The substrate was incubated at 37° C. for 1.5 hours (MMP-1; for 24 hours) with active MMP (at 20 nM, except MMP-13 at 5 nM) and a test compound in assay buffer containing 100 mM Tris-HCl (pH7.5), 10 mM CaCl2, 100 MM NaCl and 0.05% Brij-35.

In test [2] the target is T2, MMP-13 (Matrix Metalloproteinase-13, Collagenase-3) (Homo sapiens, UniProt P45452).
T2 construct: made in house; host or cells: E. coli BL21 (DE3), pET11a
In words: Inhibition assay against MMP-13 (fluorescent MCA-labeled substrate). As to conditions: Table 10; active MMP-13 at 5 nM, 37° C., 1.5 hours; read-out: IC50 MMP13. It is filed as biochemical.
Source text: To subclone C-terminal truncated form of procollagenase-3 (proMMP-13) cDNA (J.Biol.Chem., 269(24), 16766-16773 (1994)), two synthetic oligonucleotide primer (5′-[…]-3′ and 5′-[…]-3′: the former incorporates sequences for a unique NdeI site (underlined) including initial methionine, and the latter has sequences for a stop codon and BamHI site (underlined)) were used with human chondrocyte cDNA library (CLONTECH) in PCR. With these primers and Pfu DNA polymerase (STRATAGENE) in PCR, 767 bp fragment was generated, which encodes 84 amino acid prosequence and 164 amino acids of mature MMP-13. The fragment was digested with NdaI and BamHI, ligated into the NdeI and BamHI sites of pET11a (STRATAGENE), transformed in E.coli BL21 (DE3) and cultured. The crude cell extract was prepared as described in Biochemistry. The extract was dialyzed against 20 mM Tris-HCl(pH7.2)/5 mM CaCl2/0.02% NaN3 and applied to a SP-Sepharose HP column (1.6×10 cm, Amersham-Pharmacia Biotech), and elution was performed with 50 mL linear gradient of 0 to 0.3 M NaCl (partially purified proMMP-13 was eluted at 0.2 M approximately). The fraction was dialyzed against 20 mM Tris-HCl(pH7.9)/5 mM CaCl2,/200 mM (NH4)2SO4/0.02% NaN3 and applied to a Phenyl Sepharose HP column (1.6×5 cm, Amersham-Pharmacia Biotech), and elution was performed with 20 mL linear gradient of 0.2 to 0 M (NH4)2SO4 (pure proHMP-13 was eluted at 50 mM approximately). The fraction was concentrated by YM-5 ultrafiltration membrane and activated with 4-aminophenylmercuric acetate and active MMP-13 was separated from propeptide fragments by gel filtration chromatography as described in Biochemistry.
as §1, §2

T1 sequence (P08254 100-272 limits assumed): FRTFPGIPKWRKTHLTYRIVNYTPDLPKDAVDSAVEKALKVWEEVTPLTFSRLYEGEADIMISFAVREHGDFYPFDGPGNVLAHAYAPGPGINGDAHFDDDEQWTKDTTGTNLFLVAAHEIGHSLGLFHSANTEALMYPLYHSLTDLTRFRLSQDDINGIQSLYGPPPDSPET

In the case of `COc1cccc(C2SC(CC(=O)NO)C(=O)N2CC(Cl)CCCCl)c1[N+](=O)[O-]` (stereo not shown) [Example 10], the IC50 in test [1] came out at 31600 nM; in test [2] it was 5300 nM.

For `COc1ccc(C2SC(CC(=O)NO)C(=O)N2CCCc2ccccc2)cc1` (stereo not shown) [Example 13], the IC50 in test [1] is greater than 50000 nM; in test [2] it was 13200 nM.

Turning to `COc1cccc(C2SC(CC(=O)NO)C(=O)N2CCc2ccc(O)cc2)c1OC` (stereo not shown) [Example 19], the IC50 in test [1] is 1000 nM; in test [2] it was greater than 50000 nM.

With `CCCCC#Cc1ccc(C2SCC(=O)N2C(CC(C)C)C(=O)NO)cc1` (stereo not shown) [Example 42], the IC50 was greater than 10000 nM in test [1] and 759 nM in test [2].

Consider `CC(C)CC(C(=O)NO)N1C(=O)CSC1c1ccc(-c2ccc(Cl)cc2)o1` (stereo not shown) [Example 46], for which the half-maximal inhibitory concentration (IC50) in test [1] turned out to be 894 nM; in test [2], 134 nM.

Turning to `COc1ccc(C2SCC(=O)N2C(CCSC)C(=O)NO)cc1F` (stereo not shown) [Example 71], the IC50 in test [1] came out at 9070 nM; in test [2], 249 nM.

Consider `CC(C)CC(C(=O)NO)N1C(=O)CSC1c1ccc(-c2cc(C(F)(F)F)nn2C)s1` (stereo not shown) [Example 88], for which the concentration for half-maximal inhibition (IC50) in test [1] was determined as 3800 nM; in test [2], 62 nM.

With `COc1ccc(C2SCC(=O)N2C(COC(C)(C)C)C(=O)NO)cc1` (stereo not shown) [Example 105], the IC50 in test [1] stood at 6720 nM; in test [2], 231 nM.

Turning to `COc1ccc(C2SCC(=O)N2C(Cc2ccc(OC(C)(C)C)cc2)C(=O)NO)cc1` (stereo not shown) [Example 109], the results for the IC50 in test [1] and in test [2] were 599 nM and 43 nM, respectively.

Regarding `O=C(NO)C(Cc1c[nH]c2ccccc12)N1C(=O)CSC1c1ccc(Cl)cc1` (stereo not shown) [Example 121], the values for the IC50 in test [1] and in test [2] were 2550 nM and 128 nM, respectively.

`CC(C)CC(C(=O)NO)N1C(=O)CSC1c1ccc(Cl)cc1` (stereo not shown) [Example 130]: the IC50 in test [1] turned out to be 1140 nM; in test [2], 56 nM.

`CCCC(C(=O)NO)N1C(=O)CSC1c1ccc(Oc2ccccc2)cc1` (stereo not shown) [Example 143]: the IC50 in test [1] was 1270 nM; in test [2], 64 nM.

For the compound `CCC(C)C(C(=O)NO)N1C(=O)CSC1c1ccc(OC)c(F)c1` (stereo not shown) [Example 175], the IC50 in test [1] was 1140 nM; in test [2], 112 nM.

Turning to `CCC(C)C(C(=O)NO)N1C(=O)CSC1c1ccc(SC)cc1` (stereo not shown) [Example 176], the IC50 in test [1] amounted to 1060 nM; in test [2], 100 nM.

As to `CCCCC(C(=O)NO)N1C(=O)CSC1c1cc2ccccc2o1` (stereo not shown) [Example 195], the IC50 in test [1] was 1890 nM; in test [2], 119 nM.

`COc1ccc(C2SC(CC(=O)NCc3cccnc3)C(=O)N2C(Cc2ccccc2)C(=O)NO)cc1` (stereo not shown) [Example 211]: the results for the IC50 in test [1] and in test [2] were 895 nM and 108 nM, respectively.

Turning to `CC(C)CC(C(=O)NO)N1C(=O)C(CC(=O)NCc2ccco2)SC1c1ccc(Cl)cc1` (stereo not shown) [Example 218], the IC50 came out at 422 nM in test [1] and 56 nM in test [2].

With `COc1ccc(C2SC(CC(=O)NC3CCCCC3)C(=O)N2C(CC(C)C)C(=O)NO)cc1` (stereo not shown) [Example 239], the figures for the concentration for half-maximal inhibition (IC50) in test [1] and in test [2] were 274 nM and 35 nM, respectively.

As to `Cc1cc(NC(=O)CC2SC(c3ccc(Cl)cc3)N(C(Cc3ccc(OC(C)(C)C)cc3)C(=O)NO)C2=O)no1` (stereo not shown) [Example 255], the concentration for half-maximal inhibition (IC50) stood at 1200 nM in test [1] and 106 nM in test [2].

`COC(C)(C)NC(=O)CC1SC(c2ccc(Cl)cc2)N(C(Cc2ccc(OC(C)(C)C)cc2)C(=O)NO)C1=O` (stereo not shown) [Example 257]: the concentration for half-maximal inhibition (IC50) in test [1] is 267 nM; in test [2], 23 nM.

`C=CCNC(=O)CC1SC(c2ccc(Cl)cc2)N(C(CC(C)C)C(=O)NO)C1=O` (stereo not shown) [Example 262]: the IC50 in test [1] stood at 850 nM; in test [2], 66 nM.

Regarding `CCCNC(=O)CC1SC(c2ccc(Cl)cc2)N(C(Cc2ccc(OC(C)(C)C)cc2)C(=O)NO)C1=O` (stereo not shown) [Example 283], the IC50 in test [1] turned out to be 614 nM; in test [2] it was 37 nM.

As to `CCCN(CCC)C(=O)CC1SC(c2ccc(Cl)cc2)N(C(CC(C)C)C(=O)NO)C1=O` (stereo not shown) [Example 306], the figures for the 50% inhibitory concentration (IC50) in test [1] and in test [2] were 987 nM and 122 nM, respectively.

As for `COCCNC(=O)CC1SC(c2ccc(Cl)cc2)N(C(Cc2ccc(OC(C)(C)C)cc2)C(=O)NO)C1=O` (stereo not shown) [Example 316], the IC50 in test [1] amounted to 442 nM; in test [2] it was 26 nM.

Regarding `CNC(=O)CC1SC(c2ccc(OC)cc2)N(C(Cc2ccc(OC(C)(C)C)cc2)C(=O)NO)C1=O` (stereo not shown) [Example 324], the IC50 in test [1] was determined as 733 nM; in test [2] it was 63 nM.

Take `COCCCNC(=O)CC1SC(c2ccc(OC)cc2)N(C(Cc2ccc(OC(C)(C)C)cc2)C(=O)NO)C1=O` (stereo not shown) [Example 329]: the IC50 worked out at 155 nM in test [1] and 11 nM in test [2].

Turning to `COc1ccc(C2SC(CC(=O)NCCCN3CCCCC3C)C(=O)N2C(Cc2ccc(OC(C)(C)C)cc2)C(=O)NO)cc1` (stereo not shown) [Example 330], the half-maximal inhibitory concentration (IC50) in test [1] was 745 nM; in test [2] it was 66 nM.

`COc1ccc(C2SC(CC(=O)NCc3ccco3)C(=O)N2C(Cc2ccc(OC(C)(C)C)cc2)C(=O)NO)cc1` (stereo not shown) [Example 333]: the half-inhibitory concentration (IC50) in test [1] is 794 nM; in test [2], 70 nM.

Turning to `COc1ccc(C2SC(CC(=O)Nc3ccccn3)C(=O)N2C(Cc2ccc(OC(C)(C)C)cc2)C(=O)NO)cc1` (stereo not shown) [Example 361], the concentration for half-maximal inhibition (IC50) in test [1] was 446 nM; in test [2] it was 53 nM.

`COc1ccc(/C=C2\Sc3cc(Cl)ccc3N(CC(=O)NO)C2=O)cc1` [Example 370]: the results for the IC50 in test [1] and in test [2] were 1200 nM and 35 nM, respectively.

With `COc1ccc(/C=C2\Sc3ccc(C(F)(F)F)cc3N(CC(=O)NO)C2=O)cc1` [Example 371], the half-maximal inhibitory concentration (IC50) in test [1] stood at 880 nM; in test [2], 36 nM.

As for `O=C(CN1C(=O)C(=Cc2ccccn2)Sc2ccccc21)NO` [Example 378], the results for the concentration for half-maximal inhibition (IC50) in test [1] and in test [2] were greater than 50000 nM and 16000 nM, respectively.

On to `O=C(CN1C(=O)/C(=C/c2ccccc2)Sc2ccccc21)NO` [Example 388], for which the 50% inhibitory concentration (IC50) in test [1] was 23000 nM; in test [2], 1600 nM.

On to `O=C(CN1C(=O)/C(=C/c2ccc(-c3ccc(Br)cc3)o2)Sc2ccccc21)NO` [Example 389], for which the IC50 in test [1] is greater than 50000 nM; in test [2], 29000 nM.

In the case of `O=C(CN1C(=O)C(Cc2ccc(O)cc2)Sc2ccccc21)NO` (stereo not shown) [Example 406, 2H-2-(4-Hydroxybenzyl)-1,4-benzothiazin-3(4H)-one-4-yl-acetic Acid N-Hydroxyamide], the half-maximal inhibitory concentration (IC50) was determined as 3230 nM in test [1] and 257 nM in test [2].

On to `Cc1ccc(CC2Sc3ccccc3N(CC(=O)NO)C2=O)cc1` (stereo not shown) [Example 407, 2H-2-(4-Methylbenzyl)-1,4-benzothiazin-3(4H)-one-4-yl-acetic acid N-hydroxyamide], for which the concentration for half-maximal inhibition (IC50) worked out at 433 nM in test [1] and 24 nM in test [2].

For `O=C(CN1C(=O)C(Cc2ccc(Oc3ccccc3)cc2)Sc2ccccc21)NO` (stereo not shown) [Example 409], the IC50 worked out at 279 nM in test [1] and 12 nM in test [2].

As for `O=C(CN1C(=O)C(Cc2ccc(-c3ccccc3)cc2)Sc2ccccc21)NO` (stereo not shown) [Example 419], the IC50 in test [1] was 514 nM; in test [2] it was 63 nM.

In the case of `CCN(CC)c1ccc(CC2Sc3ccccc3N(CC(=O)NO)C2=O)cc1` (stereo not shown) [Example 422], the IC50 in test [1] is greater than 10000 nM; in test [2] it was 4810 nM.

With `O=C(CN1C(=O)C(Cc2cccnc2)Sc2ccccc21)NO` (stereo not shown) [Example 423], the IC50 in test [1] was found to be 5130 nM; in test [2] it was 1220 nM.

For `O=C(CN1C(=O)C(Cc2ccc(Br)cc2)Sc2ccccc21)NO` (stereo not shown) [Example 426], the half-inhibitory concentration (IC50) in test [1] stood at 375 nM; in test [2], 38 nM.

For the compound `COc1ccc(CC2Sc3cccc(Cl)c3N(CC(=O)NO)C2=O)cc1` (stereo not shown) [Example 429], the concentration for half-maximal inhibition (IC50) was 5620 nM in test [1] and 3600 nM in test [2].

As to `COc1ccc(CC2Sc3cc(C)c(C)cc3N(CC(=O)NO)C2=O)cc1` (stereo not shown) [Example 431], the values for the IC50 in test [1] and in test [2] were 238 nM and 13 nM, respectively.

Take `COc1ccc(CC2Sc3ccccc3N([C@H](C(=O)NO)C(C)C)C2=O)cc1` (stereo partly shown) [Example 436]: the IC50 came to 938 nM in test [1] and 671 nM in test [2].
